Test results from patent US9951093B2, “Chiral compounds substituted with phosphonic acid ester functions or phosphonic acid functions” (UGISense AG, priority 2006, dated 2018).

Tested on: HIV-1-NL4-3
Test: p24 ELISA in H9 cells chronically infected with HIV-1-NL4-3 (antisense effect)
Format: cell-based
Conditions: H9 cells chronically infected with HIV-1-NL4-3, 5 days of incubation, p24 GAG ELISA
Description: H9 cells, chronically infected with strain HIV-1-NL4-3 are washed twice with a PBS buffer in order to remove viruses already produced. The cells are incubated in a 96-well plate with 10^4 cells/well, 4 wells per sample, in 200 μl culturing medium with or without a compound according to the invention or Ritonavir, respectively, at a distinct concentration. After 5 days of incubation, 40 μl of the cell suspension are taken from each of the 4 wells and inactivated with 40 μl Nonidet P-40.
The amount of the antigen p24 GAG is determined by a quantitative ELISA assay (Sandwich-ELISA-Biotin-Strepavidin-HRP) according to the standard method of the Institute for Applied Microbiology in Vienna. As a standard, samples with a known amount of p24 are used to investigate the standard calibration curve.
In this context, in the case of stereochemically non-uniform oligomers of the sequence […]-NH2 (SEQ ID NO: 1), a reduction of the amount of p24 of 21% can be observed compared with the untreated sample.

TCGCTGCCAAAGAGT-NH2: stereochemically non-uniform oligomers of the sequence TCGCTGCCAAAGAGT-NH2 (SEQ ID NO: 1), as in EP 1157031 (3'-NH2, stereochemically non-uniform, chemistry not fully specified)
reduction of the amount of p24 compared with the untreated sample: 21%
